Reference: ChEMBL document CHEMBL5046315, “CRCM5484: A BET-BDII Selective Compound with Differential Anti-leukemic Drug Modulation” (J Med Chem, 2022)
pEC50: −log10 of the molar value. Activity calls are given as the source filed them. The rule behind the calls is not given here.

How the values were obtained:
NB-4 = test: Cytotoxicity against human NB-4 cells assessed as reduction in cell viability incubated for 72 hrs; assay type: functional, cell-based; conditions: NB-4, 72 h
K562 = test: Inhibition of IFNgamma induced MHC-1 expression in human K562 cells treated for 48 hrs by flow cytometric analysis; assay type: functional, cell-based; conditions: dose 0.2-20 µM
[1] = system: Acute myeloid leukemic cell; test: Potentiation of vorinostat-induced antileukemic activity against patient derived mouse xenografted acute myeloid leukemic cells assessed as cell viability at 0.16 to 10 uM in presence of bone-marrow derived stromal cell-conditioned medium measured after 72 to 144 hrs by cell-titre glo luminescent assay; assay type: functional, cell-based; conditions: Homo sapiens, dose 0.16-10 µM, time lower […], time upper 144.0 hrs
CCRF-CEM [2] = test: Potentiation of AraC-induced antileukemic activity against human CCRF-CEM cells at 4.3 uM in presence of bone-marrow derived stromal cell-conditioned medium; assay type: functional, cell-based
CCRF-CEM [3] = test: Potentiation of AT9283-induced antileukemic activity against human CCRF-CEM cells at 4.3 uM in presence of bone-marrow derived stromal cell-conditioned medium; assay type: functional, cell-based
CCRF-CEM [4] = test: Potentiation of BKM120-induced antileukemic activity against human CCRF-CEM cells at 4.3 uM in presence of bone-marrow derived stromal cell-conditioned medium; assay type: functional, cell-based
CCRF-CEM [5] = test: Potentiation of bleomycine-induced antileukemic activity against human CCRF-CEM cells at 4.3 uM in presence of bone-marrow derived stromal cell-conditioned medium; assay type: functional, cell-based
CCRF-CEM [6] = test: Potentiation of bosutinib-induced antileukemic activity against human CCRF-CEM cells at 4.3 uM in presence of bone-marrow derived stromal cell-conditioned medium; assay type: functional, cell-based
CCRF-CEM [7] = test: Potentiation of dasatinib-induced antileukemic activity against human CCRF-CEM cells at 4.3 uM in presence of bone-marrow derived stromal cell-conditioned medium; assay type: functional, cell-based
CCRF-CEM [8] = test: Potentiation of daunorubicine-induced antileukemic activity against human CCRF-CEM cells at 4.3 uM in presence of bone-marrow derived stromal cell-conditioned medium; assay type: functional, cell-based
CCRF-CEM [9] = test: Potentiation of decitabine-induced antileukemic activity against human CCRF-CEM cells at 4.3 uM in presence of bone-marrow derived stromal cell-conditioned medium; assay type: functional, cell-based
CCRF-CEM [10] = test: Potentiation of etoposide-induced antileukemic activity against human CCRF-CEM cells at 4.3 uM in presence of bone-marrow derived stromal cell-conditioned medium; assay type: functional, cell-based
CCRF-CEM [11] = test: Potentiation of GSK2879552-induced antileukemic activity against human CCRF-CEM cells at 4.3 uM in presence of bone-marrow derived stromal cell-conditioned medium; assay type: functional, cell-based
CCRF-CEM [12] = test: Potentiation of SGI-1776-induced antileukemic activity against human CCRF-CEM cells at 4.3 uM in presence of bone-marrow derived stromal cell-conditioned medium; assay type: functional, cell-based
CCRF-CEM [13] = test: Potentiation of venetoclax-induced antileukemic activity against human CCRF-CEM cells at 4.3 uM in presence of bone-marrow derived stromal cell-conditioned medium; assay type: functional, cell-based
CCRF-CEM [14] = test: Potentiation of vermurafenib-induced antileukemic activity against human CCRF-CEM cells at 4.3 uM in presence of bone-marrow derived stromal cell-conditioned medium; assay type: functional, cell-based
CCRF-CEM [15] = test: Potentiation of vorinostat-induced antileukemic activity against human CCRF-CEM cells at 4.3 uM in presence of bone-marrow derived stromal cell-conditioned medium; assay type: functional, cell-based
U-937 [16] = test: Potentiation of 17AAG-induced antileukemic activity against human U-937 cells at 4.3 uM in presence of bone-marrow derived stromal cell-conditioned medium; assay type: functional, cell-based
U-937 [17] = test: Potentiation of AT9283-induced antileukemic activity against human U-937 cells at 4.3 uM in presence of bone-marrow derived stromal cell-conditioned medium; assay type: functional, cell-based
U-937 [18] = test: Potentiation of azacitidine-induced antileukemic activity against human U-937 at 4.3 uM in presence of bone-marrow derived stromal cell-conditioned medium; assay type: functional, cell-based
U-937 [19] = test: Potentiation of docetaxel-induced antileukemic activity against human U-937 cells at 4.3 uM in presence of bone-marrow derived stromal cell-conditioned medium; assay type: functional, cell-based
U-937 [20] = test: Potentiation of GSK126-induced antileukemic activity against human U-937 cells at 4.3 uM in presence of bone-marrow derived stromal cell-conditioned medium; assay type: functional, cell-based
U-937 [21] = test: Potentiation of navitoclax-induced antileukemic activity against human U-937 cells at 4.3 uM in presence of bone-marrow derived stromal cell-conditioned medium; assay type: functional, cell-based
U-937 [22] = test: Potentiation of selinexor-induced antileukemic activity against human U-937 cells at 4.3 uM in presence of bone-marrow derived stromal cell-conditioned medium; assay type: functional, cell-based
U-937 [23] = test: Potentiation of sunitinib-induced antileukemic activity against human U-937 cells at 4.3 uM in presence of bone-marrow derived stromal cell-conditioned medium; assay type: functional, cell-based
U-937 [24] = test: Potentiation of vincristine-induced antileukemic activity against human U-937 cells at 4.3 uM in presence of bone-marrow derived stromal cell-conditioned medium; assay type: functional, cell-based
U-937 [25] = test: Potentiation of volasertib-induced antileukemic activity against human U-937 cells at 4.3 uM in presence of bone-marrow derived stromal cell-conditioned medium; assay type: functional, cell-based
MOLM-14 [26] = test: Potentiation of bleomycine-induced antileukemic activity against human MOLM-14 cells at 4.3 uM in presence of bone-marrow derived stromal cell-conditioned medium; assay type: functional, cell-based
MOLM-14 [27] = test: Potentiation of clofarabine-induced antileukemic activity against human MOLM-14 cells at 4.3 uM in presence of bone-marrow derived stromal cell-conditioned medium; assay type: functional, cell-based
MOLM-14 [28] = test: Potentiation of cyclopamine-induced antileukemic activity against human MOLM-14 cells at 4.3 uM in presence of bone-marrow derived stromal cell-conditioned medium; assay type: functional, cell-based
MOLM-14 [29] = test: Potentiation of dexamethasone-induced antileukemic activity against human MOLM-14 cells at 4.3 uM in presence of bone-marrow derived stromal cell-conditioned medium; assay type: functional, cell-based
MOLM-14 [30] = test: Potentiation of erlotinib-induced antileukemic activity against human MOLM-14 cells at 4.3 uM in presence of bone-marrow derived stromal cell-conditioned medium; assay type: functional, cell-based
MOLM-14 [31] = test: Potentiation of GSK2879552-induced antileukemic activity against human MOLM-14 cells at 4.3 uM in presence of bone-marrow derived stromal cell-conditioned medium; assay type: functional, cell-based
MOLM-14 [32] = test: Potentiation of -mastinib -induced antileukemic activity against human MOLM-14 cells at 4.3 uM in presence of bone-marrow derived stromal cell-conditioned medium; assay type: functional, cell-based
MOLM-14 [33] = test: Potentiation of olaparid-induced antileukemic activity against human MOLM-14 cells at 4.3 uM in presence of bone-marrow derived stromal cell-conditioned medium; assay type: functional, cell-based
MOLM-14 [34] = test: Potentiation of panobinostat-induced antileukemic activity against human MOLM-14 cells at 4.3 uM in presence of bone-marrow derived stromal cell-conditioned medium; assay type: functional, cell-based
MOLM-14 [35] = test: Potentiation of ponatinib-induced antileukemic activity against human MOLM-14 cells at 4.3 uM in presence of bone-marrow derived stromal cell-conditioned medium; assay type: functional, cell-based
MOLM-14 [36] = test: Potentiation of ruxolitinib-induced antileukemic activity against human MOLM-14 cells at 4.3 uM in presence of bone-marrow derived stromal cell-conditioned medium; assay type: functional, cell-based
MOLM-14 [37] = test: Potentiation of sorafenib-induced antileukemic activity against human MOLM-14 cells at 4.3 uM in presence of bone-marrow derived stromal cell-conditioned medium; assay type: functional, cell-based
MOLM-14 [38] = test: Potentiation of tipifarnib-induced antileukemic activity against human MOLM-14 cells at 4.3 uM in presence of bone-marrow derived stromal cell-conditioned medium; assay type: functional, cell-based
MOLM-14 [39] = test: cells; conditions: Homo sapiens, MOLM-14, 72 h
Description: Cytotoxicity against human MOLM-14 cells assessed as reduction in cell viability incubated for 72 hrs

Compound: CC(=O)N1CCc2c(sc3nc(SCC(=O)Nc4cccnc4C)n(Cc4ccco4)c(=O)c23)C1
- pEC50 (NB-4): < 5.30
- Activity (K562): Dose-Dependent Effect
- Activity [1]: Active
- Activity (CCRF-CEM [2]): inactive
- Activity (CCRF-CEM [3]): inactive
- Activity (CCRF-CEM [4]): inactive
- Activity (CCRF-CEM [5]): inactive
- Activity (CCRF-CEM [6]): inactive
- Activity (CCRF-CEM [7]): inactive
- Activity (CCRF-CEM [8]): inactive
- Activity (CCRF-CEM [9]): inactive
- Activity (CCRF-CEM [10]): inactive
- Activity (CCRF-CEM [11]): inactive
- Activity (CCRF-CEM [12]): inactive
- Activity (CCRF-CEM [13]): inactive
- Activity (CCRF-CEM [14]): inactive
- Activity (CCRF-CEM [15]): inactive
- Activity (U-937 [16]): inactive
- Activity (U-937 [17]): inactive
- Activity (U-937 [18]): inactive
- Activity (U-937 [19]): inactive
- Activity (U-937 [20]): inactive
- Activity (U-937 [21]): inactive
- Activity (U-937 [22]): inactive
- Activity (U-937 [23]): inactive
- Activity (U-937 [24]): inactive
- Activity (U-937 [25]): inactive
- Activity (MOLM-14 [26]): inactive
- Activity (MOLM-14 [27]): inactive
- Activity (MOLM-14 [28]): inactive
- Activity (MOLM-14 [29]): inactive
- Activity (MOLM-14 [30]): inactive
- Activity (MOLM-14 [31]): inactive
- Activity (MOLM-14 [32]): inactive
- Activity (MOLM-14 [33]): inactive
- Activity (MOLM-14 [34]): inactive
- Activity (MOLM-14 [35]): inactive
- Activity (MOLM-14 [36]): inactive
- Activity (MOLM-14 [37]): inactive
- Activity (MOLM-14 [38]): inactive
- pEC50 (MOLM-14 [39]): 5.07
